Measured values from PMC4738272 (Scientific Reports, 2016).
“And” between values parts separate entries of the source, which are not always exact repeats. Equal values may be shown once. “Also recorded” adds a separate entry of the source.

Tests used:
[1] = test system: HepG2/C3A; experiment: Human Serum Albumin quantification (ELISA), liver fraction of 4-organ system; type: cell-based; details: 4-organ co-culture under flow, 48 h drug treatment, vs control, DOX 5 μM, ATR 100 μM, VPA 2 mM, APAP 5 mM, AMAP 5 mM
Procedure: Human Serum Albumin (HSA) production from the liver fraction was tracked throughout the co-culture, by measuring the HSA concentration in the supernatant of the culture as it represents liver protein anabolism. Samples were collected from the exchanged medium (1.2 mL) and stored at −20 °C until analysis. One freeze-thaw cycle occurred before samples were analyzed following manufacturers’ instructions provided in the ELISA Starter Accessory Kit (Bethyl Laboratories Inc, Cat #: E101). Samples were diluted as necessary in sample conjugate/diluent buffer to ensure readings measured within the range of the standard curve. The standard curve was prepared by serial dilutions of human reference serum in sample conjugate/diluent buffer (0–1600 ng/ml).
Final HSA concentrations were calculated in an excel file by first removing the average OD reading measured for blanks from average sample and standard OD readings. Concentrations of standard dilutions were plotted against average OD values measured in XY scatter plots. A standard curve was created by adding an order of 2 polynomial trendline to XY scatter plots and selecting the option to display the equation of the trendline, as well as the R^2 value, on each scatter plot (for ease of analysis HSA sigmoidal curves were split into 3 standard curves with HSA concentration ranges of 0–200 ng/ml, 200–800 ng/ml and […]). Quadratic equations were rearranged to make X (sample HSA concentration) the unknown variant. Y values (OD values) and a/b/c constants generated from trendline equations were inputted into rearranged quadratic equations per assay. HSA concentrations calculated were corrected accordingly for any differences in culture final volumes, sample dilutions during assays and cells number.

[2] = test system: iPSc differentiated Cardiomyocytes; experiment: Cardiac beating frequency from video recordings; type: cell-based, human; details: 4-organ co-culture under flow, 48 h drug treatment, day 7, vs control; for Cardiomyocyte beating rate (beat frequency), increase: ATR 100 μM, VPA 2 mM, APAP 5 mM; for Cardiomyocyte beating rate (beat frequency), decrease: DOX 5 μM, AMAP 5 mM
Procedure: Seven or fourteen days after the co-culture, cardiac beating frequency was quantified from video recordings of three different areas of each of the cMEA surfaces, where the cardiomyocytes culture where located. Surfaces were located in a 37 °C bath platform containing co-culture medium with 50 mM HEPES on the stage of a Zeiss Axioscope 2FS upright microscope. Beats were counted in a period of 10 s, and the average number of 3 values was obtained. Drug effect was plotted as percentage of change compared to the control conditions.

[3] = test system: Human Skeletal Myofibers; experiment: Myotube stimulated contraction (binary: contracting or not); type: cell-based; details: 4-organ co-culture under flow, 48 h drug treatment, day 7, broad-field electrical stimulation, DOX 5 μM, ATR 100 μM, VPA 2 mM, APAP 5 mM, AMAP 5 mM
Procedure: Myotube contraction in coverslips was evaluated after the co-culture was finalized. Individual surfaces were evaluated as previously reported in the group. Drugs effects were quantify in a binary code mode, cells were or were not contracting.

[4] = test system: neurons; experiment: Neuron electrophysiology recording (patch clamp); type: cell-based, human; details: 4-organ co-culture under flow, 48 h drug treatment, day 7, vs control, DOX 5 μM, ATR 100 μM; for Neuronal repetitive and spontaneous firing ability / Neuronal ion currents and firing of stimulated action potentials / Neuronal electrophysiology, overall effect: APAP 5 mM; for Neuronal repetitive and spontaneous firing ability / Neuronal electrophysiology, overall effect: AMAP 5 mM; for Neuronal electrophysiology, overall effect: VPA 2 mM
Description: Electrophysiological properties of neuron cultures where recorded on the last day of co-culture following a previously described method. Values of firing, repetitive firing, spontaneous firing, inward sodium current, outward potassium current, action potential peak voltage and the resting membrane potential, characterized the mature functionality of neurons in the in vitro system. Drug alterations of the neuronal electrophysiology are discussed in this manuscript.

[5] = test system: CYP3A4; experiment: Cytochrome p450 3A4 enzymatic activity in liver mono-culture; type: cell-based, human; details: ATR 100 μM, 48 hour incubation, data not shown
Procedure: Enzymatic products from 1A1 were run with LDR, and separately, 3A4 were run with LDR containing esterases. Enzymatic activities were finally represented as D-Luciferin picomoles produce in 1 hour by 1 × 10^6 cells.

[6] = test system: Liver; parameters: method as in Literature; details: general toxic effects reported in the literature; ref Literature; cited from earlier work
[7] = test system: Muscle; parameters: method as in Literature; details: general toxic effects reported in the literature; ref Literature; cited from earlier work
[8] = test system: Neurons; parameters: method as in Literature; details: general toxic effects reported in the literature; ref Literature; cited from earlier work
[9] = test system: Cardiomyocytes; parameters: method as in Literature; details: general toxic effects reported in the literature; ref Literature; cited from earlier work
[10] = test system: iPSc differentiated Cardiomyocytes; experiment: MTT viability of cardiac module in 4-organ system; details: 4-organ co-culture under flow, serum-free medium, 48 h drug treatment, day 7, vs control, DOX 5 μM, ATR 100 μM, VPA 2 mM, APAP 5 mM, AMAP 5 mM
Description: (§1) The four organ in vitro systems were assembled, on day 0, by placing the corresponding surfaces cell side up in a specific chamber of the housing (liver coverslip into chamber 1, cardiac coverslips and cantilevers into chambers 2 and 4, muscle coverslips into chamber 5, and neuron coverslips into chamber 3 and they were then topped with the serum-free co-culture medium (1X Neurobasal Medium, 1X B27, 1X AB/AM, 1X Glutamax (all from Life Technologies)) before locking the system. Right after assembling, the medium was completely replaced with 4 mL of the co-culture defined serum-free medium and the systems placed on a rocking platform inside an incubator. Platforms were checked every day by inspecting for expected cell morphology inside the system and by replacing medium (1.2 mL total volume) from the two reservoirs (30% of the total volume was replaced) with fresh medium. Drug incubation was initiated on day 5 of the co-culture by addition of the drug through the reservoir closer to the liver chamber (no. 1), allowing a first contact of the drug with the liver. 20 μL of the drug stock solution (or vehicle) to achieve a working concentration in 4 mL of total volume in the platform was utilized. On day 6, after 24 hours of drug incubation, 6 μL of the drug stock solution (or vehicle) was added to the fresh medium exchange volume (1.2 mL). After 48 hour of drug incubation, on day 7, systems were disassembled to test organ functionality that same day. For mono-culture conditions, surfaces remained in a 12-well plated with 1 mL of the co-culture defined serum-free medium maintained by daily replacement of half volume.
(§2) Seven days after the initiation of the co-culture, viability of each organ chamber, except for neurons, was evaluated through an MTT assay. […] Cell viability was measured at 570 nm in a Synergy HT plate reader and KC4 software. The results were expressed as the percentage of cell survival relative to the control (untreated or incubated with vehicle). The neuronal fraction viability was evaluated through morphological analysis throughout the co-culture experiment as the final coverslips were used for patch-clamp electrophysiology. Phase images (10X) where obtained every day of the co-culture. Neuronal viability was evaluated by cell morphology integrity and by cell count from day 1 to day 14.

[11] = test system: Human Skeletal Myofibers; experiment: MTT viability of skeletal muscle module in 4-organ system; details: 4-organ co-culture under flow, serum-free medium, 48 h drug treatment, day 7, vs control, DOX 5 μM, ATR 100 μM, VPA 2 mM, APAP 5 mM, AMAP 5 mM
Description: as §1, §2

[12] = test system: neurons; experiment: Neuronal viability by morphological analysis and cell count in 4-organ system; details: 4-organ co-culture under flow, serum-free medium, 48 h drug treatment, day 7, vs control, DOX 5 μM, ATR 100 μM, VPA 2 mM, APAP 5 mM, AMAP 5 mM
Description: as §1, §2

[13] = test system: HepG2/C3A; experiment: MTT viability of liver module in 4-organ system; type: cell-based, human; details: 4-organ co-culture under flow, serum-free medium, 48 h drug treatment, day 7, vs control, DOX 5 μM, ATR 100 μM, VPA 2 mM, APAP 5 mM, AMAP 5 mM
Description: as §1, §2

[14] = test system: HepG2/C3A; experiment: Urea quantification, liver fraction of 4-organ system; type: cell-based, human; details: 4-organ co-culture under flow, 48 h drug treatment, vs control, DOX 5 μM, ATR 100 μM, APAP 5 mM, AMAP 5 mM
[15] = test system: skeletal muscle cells; experiment: Bright-field imaging of skeletal muscle morphology in 4-organ system; type: cell-based, human; details: 4-organ co-culture under flow, DOX 5 μM, 48 h
Description: Cell morphology and function were studied each day with an inverted bright-field microscope (Carl Zeiss) using a 10X objective. This working distance allowed the imaging of the cells in the specific surfaces inside the housing. Images of each fraction and systems were collected with an Axio Cam and AxioVision AC software to study morphological or functional changes in the co-culture chamber for each organ.

[16] = cited from earlier work
[17] = test system: liver; details: patients undergoing DOX treatment; cited from earlier work
[18] = test system: neuron; parameters: method as in PMID 17298386; details: 1uM DOX for 24 hours; read-out: Neuron viability drop; cited from earlier work

Row | Compound | HSA (albumin) production, increase [1] | Skeletal muscle loss of contractile ability (share of cultures in which contraction ceased) [3] | Neuronal action potential peak voltage and resting membrane potential (DOX also peak ionic currents) [4] | Neuronal electrophysiology, overall effect [4] | Drug effects on cell functionality, Liver, Literature [6] | Drug effects on cell viability, Liver, Literature [6] | Drug effects on cell functionality, Muscle, Literature [7] | Drug effects on cell viability, Muscle, Literature [7] | Drug effects on cell functionality, Neurons, Literature [8] | Drug effects on cell viability, Neurons, Literature [8] | Drug effects on cell functionality, Cardiomyocytes, Literature [9] | Drug effects on cell viability, Cardiomyocytes, Literature [9] | Cardiomyocyte viability, loss [10] | Skeletal muscle viability, loss [11] | Neuronal cell viability, loss (cell loss by morphology/cell count) [12] | further results
1 | CC(C)c1c(C(=O)Nc2ccccc2)c(-c2ccccc2)c(-c2ccc(F)cc2)n1CC[C@@H](O)C[C@@H](O)CC(=O)O [Atorvastatin] | not affected | 50% loss of contractile ability | changes | Electrophysiology affected | May be compromised | Toxicity reported | Compromised | Toxicity reported | Toxic at higher concentration( ^**) | Toxic at higher concentration( ^**) | Cardio-protective effect | Cardio-protective effect | No toxic effect observed | 30 ± 15% loss | 47 ± 14% loss of cell viability | HSA (albumin) production, increase ([1]; listed as ATR): no change; Cardiomyocyte beating rate (beat frequency), increase [2]: 43 ± 16% increase in beating rate; Cardiomyocyte beating rate (beat frequency), increase ([2]; listed as ATR): 43 ± 16%; Skeletal muscle loss of contractile ability (share of cultures in which contraction ceased) ([3]; listed as ATR): 50%; Neuronal repetitive and spontaneous firing ability ([4]; listed as ATR): altered ability; also recorded: no repetitively firing cells were observed; Neuronal ion currents and firing of stimulated action potentials ([4]; listed as ATR): typical ion currents and stimulated firing APs; also recorded: regular AP activity was recorded with good sodium and potassium currents; CYP3A4 activity induction [5]: 12 fold; Cardiomyocyte viability, loss ([10]; listed as ATR): no reduction; Skeletal muscle viability, loss ([11]; listed as ATR): 30 ± 15%; Neuronal cell viability, loss (cell loss by morphology/cell count) ([12]; listed as ATR): 47 ± 14% and 47 ± 16%
2 | COc1cccc2c1C(=O)c1c(O)c3c(c(O)c1C2=O)C[C@@](O)(C(=O)CO)C[C@@H]3O[C@H]1C[C@H](N)[C@H](O)[C@H](C)O1 [Doxorubicin] | HSA and Urea not affected( ^*) | 60% loss of contractile ability | not significantly different | Electrophysiology affected | May be compromised | Toxicity reported | Toxicity at higher concentrations | Toxicity at higher concentrations | Neurologic disturbances ( ^**) | Neurologic disturbances ( ^**) | Compromised | Toxicity reported | 65 ± 6% loss | Toxicity not observed | 33 ± 13% loss of cell viability | Liver (hepatocyte) cell viability, loss [13]: 49 ± 10% loss; Liver (hepatocyte) cell viability, loss ([13]; listed as DOX): 49 ± 10%; Urea production, increase [14]: HSA and Urea not affected( ^*); Urea production, increase ([14]; listed as DOX): No effects; HSA (albumin) production, increase ([1]; listed as DOX): No effects; Cardiomyocyte beating rate (beat frequency), decrease [2]: 47 ± 9% decrease in beating rate; Cardiomyocyte beating rate (beat frequency), decrease ([2]; listed as DOX): 47 ± 9%; Skeletal muscle loss of contractile ability (share of cultures in which contraction ceased) ([3]; listed as DOX): 60%; Neuronal ion currents and firing of stimulated action potentials [4]: no changes; Neuronal repetitive and spontaneous firing ability ([4]; listed as DOX): not observed after treatment; Muscle morphology [15]: not affected; Patient plasma concentrations typically detected ([16]; patients): 0.5 to 1 µM; Concentration in mitochondria relative to plasma levels ([16]; typically): 100 times; Patients undergoing treatment that show hepatotoxicity [17]: 40%; cytotoxicity [18]: 25%; Cardiomyocyte viability, loss ([10]; listed as DOX): 65 ± 6%; Neuronal cell viability, loss (cell loss by morphology/cell count) ([12]; listed as DOX): 33 ± 18% and 33 ± 13%
